Laboratory results reported in ChEMBL document CHEMBL1144604, “Synthesis and biological evaluation of phosphonate derivatives as autotaxin (ATX) inhibitors” (Bioorg Med Chem Lett, 2007).

Assays:
Autotaxin (Homo sapiens) [1] = molecular target: Autotaxin (Homo sapiens) (UniProt Q13822); experiment: Inhibition of human recombinant ATX at 10 uM after 16 hrs; values are per cent of control
Autotaxin (Homo sapiens) [2] = molecular target: Autotaxin (Homo sapiens) (UniProt Q13822); experiment: Inhibition of human recombinant ATX at 100 uM after 16 hrs; values are per cent of control
Autotaxin (Homo sapiens) [3] = molecular target: Autotaxin (Homo sapiens) (UniProt Q13822); experiment: Inhibition of human recombinant ATX at 1 uM after 16 hrs; values are per cent of control

SMILES | residual activity (Autotaxin (Homo sapiens) [1]) [%] | residual activity (Autotaxin (Homo sapiens) [2]) [%] | residual activity (Autotaxin (Homo sapiens) [3]) [%]
CCCCCCCCCC(=O)N[C@H](Cc1ccc(OCc2ncc(C)c(OC)c2C)cc1)C(O)CP(=O)(O)O (stereo partly specified) | 86 | 30 | 
CCCCCCCCCCCCCCCC(=O)N[C@@H](Cc1ccc(OCc2cc(OCC(F)(F)F)ccn2)cc1)C(=O)CP(=O)(O)O | 68 | 44 | 79
CCCCCCCCCCCCCCCC(=O)N[C@@H](Cc1ccc(OCc2ccccc2)cc1)C(=O)CP(=O)(O)O | 71 | 61 | 
CCCCCCCCCCCCCCCC(=O)N[C@H](Cc1ccc(OC)cc1)C(=O)CP(=O)(O)O | 71 | 32 | 84
CCCCCCCCCCCCCCCC(=O)N[C@H](Cc1ccc(OCCC(C)C)cc1)C(=O)CP(=O)(O)O | 101 | 76 | 97
CCCCCCCCCCCCCCCC(=O)N[C@H](Cc1ccc(OCCC)cc1)C(=O)CP(=O)(O)O | 97 | 75 | 104
CCCCCCCCCCCCCCCC(=O)N[C@H](Cc1ccc(OCc2cc(OCC(F)(F)F)ccn2)cc1)C(=O)CP(=O)(O)O | 70 | 57 | 85
CCCCCCCCCCCCCCCC(=O)N[C@H](Cc1ccc(OCc2ccccc2)cc1)C(=O)CP(=O)(O)O | 82 | 76 | 
CCCCCCCCCCCCCCCC(=O)N[C@H](Cc1ccc(OCc2ncc(C)c(OC)c2C)cc1)C(=O)CP(=O)(O)O | 74 | 26 | 71
CCCCCCCCCCCCCCCC(=O)N[C@H](Cc1ccc(OCC2CCCCC2)cc1)C(O)CP(=O)(O)O (single isomer, unassigned) | 80 | 67 | 84
CCCCCCCC/C=C/CCCCCCCC(=O)N[C@@H](Cc1ccc(OCc2ncc(C)c(OC)c2C)cc1)C(O)CP(=O)(O)O (single isomer, unassigned; diastereomer a) | 45 | 15 | 
CCCCCCCCCCCCCC(=O)N[C@H](Cc1ccc(OCc2ncc(C)c(OC)c2C)cc1)C(O)CP(=O)(O)O (single isomer, unassigned; diastereomer a) | 99 | 67 | 
CCCCCCCCCCCCCCCC(=O)N[C@@H](Cc1ccc(OCCC)cc1)C(O)CP(=O)(O)O (single isomer, unassigned; diastereomer a) | 97 | 77 | 110
CCCCCCCCCCCCCCCC(=O)N[C@@H](Cc1ccc(OCCCCC)cc1)C(O)CP(=O)(O)O (single isomer, unassigned; diastereomer a) | 83 | 67 | 98
CCCCCCCCCCCCCCCC(=O)N[C@@H](Cc1ccc(OCc2ccccc2)cc1)C(O)CP(=O)(O)O (single isomer, unassigned; diastereomer a) | 77 | 68 | 97
CCCCCCCCCCCCCCCC(=O)N[C@@H](Cc1ccc(OCc2ccccn2)cc1)C(O)CP(=O)(O)O (single isomer, unassigned; diastereomer a) | 81 | 52 | 104
CCCCCCCCCCCCCCCC(=O)N[C@H](Cc1ccc(OC)cc1)C(O)CP(=O)(O)O (single isomer, unassigned; diastereomer a) | 78 | 57 | 100
CCCCCCCCCCCCCCCC(=O)N[C@H](Cc1ccc(OCCC(C)C)cc1)C(O)CP(=O)(O)O (single isomer, unassigned; diastereomer a) | 104 | 72 | 103
CCCCCCCCCCCCCCCC(=O)N[C@H](Cc1ccc(OCc2ncc(C)c(OC)c2C)cc1)C(O)CP(=O)(O)O (single isomer, unassigned; diastereomer a) | 95 | 63 | 108
CCCCCCCCCCCCCCCCCCCC(=O)N[C@@H](Cc1ccc(OCc2ncc(C)c(OC)c2C)cc1)C(O)CP(=O)(O)O (single isomer, unassigned; diastereomer a) | 45 | 10 | 64
CCCCCCCCCCCCCCCC(=O)N[C@@H](Cc1ccc(OCC2CCCCC2)cc1)C(O)CP(=O)(O)O (single isomer, unassigned; diastereomer b) | 80 | 80 | 80
CCCCCCCCCCCCCCCC(=O)N[C@@H](Cc1ccc(OCCC)cc1)C(O)CP(=O)(O)O (single isomer, unassigned; diastereomer b) | 100 | 83 | 100
CCCCCCCCCCCCCCCC(=O)N[C@@H](Cc1ccc(OCc2ccccn2)cc1)C(O)CP(=O)(O)O (single isomer, unassigned; diastereomer b) | 74 | 65 | 
CCCCCCCCCCCCCCCC(=O)N[C@H](Cc1ccc(OCCC)cc1)C(O)CP(=O)(O)O (single isomer, unassigned; diastereomer b) | 108 | 90 | 108
CCCCCCCCCCCCCCCC(=O)N[C@H](Cc1ccc(OCCCCC)cc1)C(O)CP(=O)(O)O (single isomer, unassigned; diastereomer b) | 82 | 70 | 86
CCCCCCCCCCCCCCCC(=O)N[C@H](Cc1ccc(OCc2cc(OCC(F)(F)F)ccn2)cc1)C(O)CP(=O)(O)O (single isomer, unassigned; diastereomer b) | 84 | 64 | 
CCCCCCCCCCCCCCCC(=O)N[C@H](Cc1ccc(OCc2ccccn2)cc1)C(O)CP(=O)(O)O (single isomer, unassigned; diastereomer b) | 78 | 69 | 92
CCCCCCCCCCCCCC(=O)N[C@H](Cc1ccc(OCc2ncc(C)c(OC)c2C)cc1)C(O)CP(=O)(O)O (stereo in doubt; f38) |  | 35 | 

Results, then the compound that gave them:

residual activity (Autotaxin (Homo sapiens) [1]) [%] | residual activity (Autotaxin (Homo sapiens) [2]) [%] | residual activity (Autotaxin (Homo sapiens) [3]) [%] | SMILES
68 | 45 | 96 | CCCCCCCCCCCCCCCC(=O)N[C@@H](Cc1ccc(OC)cc1)C(=O)CP(=O)(O)O
104 | 85 | 104 | CCCCCCCCCCCCCCCC(=O)N[C@@H](Cc1ccc(OCCC(C)C)cc1)C(=O)CP(=O)(O)O
97 | 72 |  | CCCCCCCCCCCCCCCC(=O)N[C@@H](Cc1ccc(OCCC)cc1)C(=O)CP(=O)(O)O
83 |  | 95 | CCCCCCCCCCCCCCCC(=O)N[C@@H](Cc1ccc(OCCCCC)cc1)C(=O)CP(=O)(O)O
72 | 50 | 102 | CCCCCCCCCCCCCCCC(=O)N[C@@H](Cc1ccc(OCc2ccccn2)cc1)C(=O)CP(=O)(O)O
84 |  | 93 | CCCCCCCCCCCCCCCC(=O)N[C@H](Cc1ccc(OCCCCC)cc1)C(=O)CP(=O)(O)O
68 | 52 | 78 | CCCCCCCCCCCCCCCC(=O)N[C@H](Cc1ccc(OCc2ccccn2)cc1)C(=O)CP(=O)(O)O
56 | 36 | 77 | CCCCCCCCCCCCCCCC(=O)N[C@@H](Cc1ccc(OC)cc1)C(O)CP(=O)(O)O (single isomer, unassigned; diastereomer a)
85 | 80 | 81 | CCCCCCCCCCCCCCCC(=O)N[C@H](Cc1ccc(OCCCCC)cc1)C(O)CP(=O)(O)O (single isomer, unassigned; diastereomer a)
84 | 55 | 92 | CCCCCCCCCCCCCCCC(=O)N[C@H](Cc1ccc(OCc2cc(OCC(F)(F)F)ccn2)cc1)C(O)CP(=O)(O)O (single isomer, unassigned; diastereomer a)
82 | 83 | 83 | CCCCCCCCCCCCCCCC(=O)N[C@H](Cc1ccc(OCc2ccccc2)cc1)C(O)CP(=O)(O)O (single isomer, unassigned; diastereomer a)
90 | 70 | 94 | CCCCCCCCCCCCCCCC(=O)N[C@@H](Cc1ccc(OCCCCC)cc1)C(O)CP(=O)(O)O (single isomer, unassigned; diastereomer b)
83 | 78 | 76 | CCCCCCCCCCCCCCCC(=O)N[C@@H](Cc1ccc(OCc2ccccc2)cc1)C(O)CP(=O)(O)O (single isomer, unassigned; diastereomer b)
104 | 94 |  | CCCCCCCCCCCCCCCC(=O)N[C@H](Cc1ccc(OCCC(C)C)cc1)C(O)CP(=O)(O)O (single isomer, unassigned; diastereomer b)
81 | 83 | 80 | CCCCCCCCCCCCCCCC(=O)N[C@H](Cc1ccc(OCc2ccccc2)cc1)C(O)CP(=O)(O)O (single isomer, unassigned; diastereomer b)
64 | 47 | 69 | CCCCCCCCCCCCCCCC(=O)N[C@H](Cc1ccc(OCc2ncc(C)c(OC)c2C)cc1)C(O)CP(=O)(O)O (single isomer, unassigned; diastereomer b)
90 | 62 |  | CCCCCCCCCCCCCCCCCC(=O)N[C@@H](Cc1ccc(OCc2ncc(C)c(OC)c2C)cc1)C(O)CP(=O)(O)O (single isomer, unassigned; diastereomer b)
